# Measurements reported in patent US20230286999A1, “ORGANIC COMPOUND, LIGHT-RECEIVING DEVICE, LIGHT-EMITTING AND LIGHT-RECEIVING APPARATUS, AND ELECTRONIC DEVICE” (Semiconductor Energy Laboratory Co., Ltd., priority 2022, published 2023).
# Tests used:
# [1] = Solubility evaluation using a liquid chromatography mass spectrometer; format: physicochemical; settings: for Ratio of chromatogram peak areas (Peak area of material/Peak area of solvent × 100), considered as the solubility: 0.5 mg material in 0.25 mL chloroform + 2.5 mL acetonitrile, filtrate after 18 hours, DPAPhA: 1 mg in 1 mL toluene, 5-fold dilution with acetonitrile, 100% = completely dissolved; for solubility compared with FT2TDMN (in words): chloroform/acetonitrile sample
# Method: In Example 3, the solubilities of materials that can be used for a photoelectric conversion device of one embodiment of the present invention are described. The solubilities of the materials were measured using a liquid chromatography mass spectrometer.
# In Example 3, the solubilities of the organic compound (abbreviation: EtHex-FT2TDMN) represented by Structural Formula (100) in Embodiment 1 and the organic compound (abbreviation: EtHex-BisDCVTTt) represented by Structural Formula (200) in Embodiment 1 were evaluated. As a comparative example, FT2TDMN, which is a material having no branched alkyl, was evaluated. Furthermore, DPAPhA, which is a material with high solubility, was also evaluated as a reference sample.
# The solubilities were measured using a liquid chromatography mass spectrometer. Specifically, chromatogram peak areas of the solvent and the material in the sample were obtained, the proportion of the peak area of the material to the peak area of the solvent was calculated, and the calculated value was considered as the solubility.
# Note that the solubility of the case where the sample is completely dissolved is 100%. In Example 3, DPAPhA is a reference sample that is completely dissolved. In the case where a chromatogram peak is not detected and an MS spectrum is detected from a sample, the mass of the sample is regarded as being lower than the detection limit and the solubility is 0%.
# The liquid chromatography mass spectrometer is constructed of ACQUITY H-Class (produced by Waters Corporation) and Xevo™ G2 Q-TOF MS (produced by Waters Corporation), and ACQUITY UPLC (registered trademark) BEH C8 Column ([…], 2.1×100 mm) (produced by Waters Corporation, hereinafter referred to as Column) was used as a column.
# Samples of EtHex-FT2TDMN, EtHex-BisDCVTTt, and FT2TDMN used for solubility evaluation were formed. Specifically, in a reagent bottle made of glass were put 0.5 mg of the material and 0.25 mL of chloroform, and ultrasonic treatment was performed for 1 minute. To the obtained mixture, 2.5 mL of acetonitrile was added, and the resulting mixture was left still. After 18 hours, the resulting mixture was filtrated. With the use of the obtained filtrate as a sample, a solubility test for evaluating the solubility was performed using the liquid chromatography mass spectrometer.
# Next, the DPAPhA sample used for solubility evaluation was formed. In a reagent bottle made of glass were put 1 mg of the material and 1 mL of toluene, and ultrasonic treatment was performed for 1 minute. Acetonitrile was added to the obtained solution to make a 5-fold dilution. The dilute solution was used as the sample and took the solubility test with the liquid chromatography mass spectrometer.
# A measurement method for the solubility test for evaluating the solubility using the liquid chromatography mass spectrometer is described. As a mobile phase A and a mobile phase B, acetonitrile and a formic acid aqueous solution (0.1%) were used, respectively; the velocity of flow of a solvent was 0.5 mL/min; and the sample injection amount was 5 μL.
# (§1) For 1 minute from the beginning of the measurement, the ratio of a mobile phase A to a mobile phase B was set to be 75:25. From 1 minute to 9 minutes, measurement was performed with a linear gradient to the ratio of 95:5. After a lapse of 10 minutes, measurement was performed for 5 minutes with the ratio of 95:5 held.
# as §1, with “85:15.” for “75:25.”
# For 1 minute from the beginning of the measurement, the ratio of a mobile phase A to a mobile phase B was set to be 40:60. From 1 minute to 9 minutes, measurement was performed with a linear gradient to the ratio of 95:5. […]
# [2] = Thermogravimetry-differential thermal analysis (TG-DTA); format: physicochemical; settings: 10° C./min
# Method: (§2) The thermogravimetry-differential thermal analysis (TG-DTA) of EtHex-FT2TDMN was performed. The measurement was conducted using a high vacuum differential type differential thermal balance (TG-DTA 2410SA, manufactured by Bruker AXS K.K.). The measurement was performed under two conditions. The first measurement was performed at atmospheric pressure at a temperature rising rate of 10° C./min under a nitrogen stream (flow rate: 200 mL/min). The second measurement was performed at 10 Pa at a temperature rising rate of 10° C./min under a nitrogen stream (flow rate: 2 mL/min).
# as §2, with “(TG-DTA) of EtHex-BisDCVTTt was performed.” for “(TG-DTA) of EtHex-FT2TDMN was performed.”, “was performed under atmospheric pressure” for “was performed at atmospheric pressure”
# [3] = 10 Pa, nitrogen stream 2 mL/min
# [4] = atmospheric pressure, nitrogen stream 200 mL/min
Structure (SMILES),"Ratio of chromatogram peak areas (Peak area of material/Peak area of solvent × 100), considered as the solubility [1]","chromatogram peak detection in solubility measurement (in words) ([1]; only an MS spectrum was detected, regarded as below detection limit, solubility 0%)",solubility compared with FT2TDMN (in words) [1],"temperature (decomposition temperature) at which the weight obtained by thermogravimetry was reduced by 5% [2, 3]","temperature (decomposition temperature) at which the weight obtained by thermogravimetry was reduced by 5% [2, 4]"
"c1ccc(-c2c3ccccc3c(N(c3ccccc3)c3ccc(N(c4ccccc4)c4ccccc4)cc3)c3ccccc23)cc1 [DPAPhA, reference compound]",100%,,,,
"N#CC(C#N)=Cc1ccc(-c2cc3sc(-c4ccc(C=C(C#N)C#N)s4)cc3s2)s1 [FT2TDMN, reference compound]",0%,no chromatogram peak was detected,,,
"CCCCC(CC)Cc1cc(-c2cc3sc(-c4cc(CC(CC)CCCC)c(C=C(C#N)C#N)s4)cc3s2)sc1C=C(C#N)C#N (centres unmarked) [EtHex-FT2TDMN, 2,2′-[5,5′-(thieno[3,2-b]thiophene-2,5-diyl)bis(3-(2-ethylhexyl)thiophene-5,2-diyl)]bis(methan-1-yl-1-ylidene)dimalononitrile]",18%,,favorable solubilities,244 °C,325 °C
CCCCC(CC)Cc1cc(-c2cc3sc(-c4cc5sc(-c6cc(CC(CC)CCCC)c(C=C(C#N)C#N)s6)cc5s4)cc3s2)sc1C=C(C#N)C#N (centres unmarked) [EtHex-BisDCVTTt],3.5%,,favorable solubilities,295 °C,362 °C
